Reference: BindingDB's records for doi:10.1128/aac.40.5.1304 (Merck Research Laboratories, 1996)

Molecular target: Polymerase acidic protein (Influenza A virus (strain A/Puerto Rico/8/1934 H1N1), UniProt P03433)
Test: Inhibition of Influenza replication

Row | SMILES | IC50 [nM]
1 | O=C(O)C(=O)CC(=O)C1(Cc2ccc(Cl)cc2)CCN(Cc2ccc(Cl)cc2)CC1 | 180
2 | O=C(O)C(=O)CC(=O)C1(Cc2ccc(Cl)cc2)CCCN(Cc2ccccc2)C1 (configuration not stated) | 1600
